Data taken from patent US20250073210A1, “Use of Ergothioneine for Enhancing Glutathione Level” (priority 2022, published 2025).

Assays:
[1] = Preliminary cytotoxicity assay (WST-8 reduction, viability and morphological observations); assay type: cell-based, human; settings: human
Method: (§1) In the present study, the effects of compound L-Ergothioneine were investigated in normal human epidermal keratinocytes (NHEK) under basal or UV-irradiated conditions. More specifically, the effects of this compound were evaluated using RT-qPCR technology. Extracted mRNA was analyzed using a PCR array (“mQPA-8-Nrf2”) for the analysis of 8 target genes (including 1 housekeeping gene) selected for their role in Nrf2 pathway. Prior to this assay, a preliminary cytotoxicity assay was performed on compound L-Ergothioneine and Resveratrol (reference in basal condition) using a standard WST-8 reduction assay, in order to determine the concentrations to be tested in this study.
(§2) Cell type: Normal human epidermal keratinocytes (NHEK) used at the 3rd passage. Culture conditions: 37° C., 5% CO2. Culture medium: Keratinocyte-SFM optimized for the assay, supplemented with Epidermal Growth Factor Pituitary extract. Assay medium: Keratinocyte-SFM optimized for the assay. Test compound: L-Ergothioneine in ultrapure water. Test concentrations: 0.5, 3 and 30 μM. Reference: Resveratrol. Test concentration: 20 μM.
(§3) Cell type: NHEK in assay medium. Incubation time: 24 hours.
(§4) After treatment, the cells were incubated with WST-8 (highly water-soluble tetrazolium salt) reduced in a water-soluble orange colored product (formazan) by succinate dehydrogenase (mitochondrial enzyme). This transformation is proportional to the number of living cells and their metabolic activity. The optical density (OD) of the extracts at 450 nm was recorded with a spectrometer (VERSAmax, Molecular Devices).

[2] = system: normal human epidermal keratinocytes (NHEK); test: as above; assay type: cell-based; settings: human, 24 h
Method: as §1, §2, §3, §4

RPS28 = test: RT-qPCR PCR array mQPA-8-Nrf2, housekeeping gene RPS28; assay type: cell-based, human
Method: as §1, §2
(§5) Keratinocytes were seeded in 24-well plates and cultured for 24 hours in culture medium and in assay medium for a further 24 hours. The medium was then replaced by assay medium containing or not (control) the compound or Resveratrol and cells were pre-incubated for 24 hours.
(§6) After pre-incubation, the medium was then removed and replaced by a PBS solution. For basal conditions, the plate was kept in the dark during the irradiation time. For irradiated conditions, the cells were irradiated with UVB−275 mJ/cm^2 (+UVA−2 J/cm^2) using a SOL500 Sun Simulator equipped with an H2 filter (Dr. Hönle, AG). After irradiation time, the treatments were renewed, and the cells were incubated for 24 hours. All experimental conditions were performed in n=3. At the end of incubation, the cells were washed in phosphate buffered saline (PBS) solution and immediately frozen at −80° C.
(§7) The expression of markers was analyzed using RT-qPCR method on total RNA extracted from the cell monolayers of each experimental condition (before RNA extraction, the replicates of the same experimental condition were pooled). The analysis of transcripts was performed in n=2 using a PCR array dedicated to research and adapted to ‘screening’ format and targeting 8 genes selected for their role in Nrf2 pathway.
(§8) Total RNA was extracted from each sample using TriPure Isolation Reagent® according to the supplier's instructions. The amount and quality of RNA were evaluated using capillary electrophoresis (Bioanalyzer 2100, Agilent technologies). The complementary DNA (cDNA) was synthetized by reverse transcription of total RNA in presence of oligo(dT) and «Transcriptor Reverse Transcriptase» (Roche Molecular System Inc.). The cDNA quantities were then adjusted before PCR.
(§9) The PCR (Polymerase Chain Reaction) were performed using the «LightCycler®» system (Roche Molecular System Inc.) according to the supplier's instructions. The reaction mix (10 μl final) was prepared as follows: 2.5 μl of cDNA; primers (forward and reverse); reagent mix (Roche) containing taq DNA polymerase, SYBR Green I and MgCl2.
(§10) The incorporation of fluorescence in amplified DNA was continuously measured during the PCR cycles. […] The value selected for RE calculations is the “output point” (Ct) of the fluorescence curve. For a considered marker, the highest is the cycle number; the lowest is the mRNA quantity. The RE value was calculated with the formula: (½^number of cycles)×10^6. The PCR array used in the present study included 1 reference gene (RPS28).

NQO1 = test: RT-qPCR PCR array mQPA-8-Nrf2, NQO1 expression in NHEK; assay type: cell-based, human
Method: as §1, §2, §5, §6, §7, §8, §9, §10

HMOX1 = test: RT-qPCR PCR array mQPA-8-Nrf2, HMOX1 expression in NHEK; assay type: cell-based, human
Method: as §1, §2, §5, §6, §7, §8, §9, §10

MT1G = test: RT-qPCR PCR array mQPA-8-Nrf2, MT1G expression in NHEK; assay type: cell-based, human
Method: as §1, §2, §5, §6, §7, §8, §9, §10

TXN = test: RT-qPCR PCR array mQPA-8-Nrf2, TXN expression in NHEK; assay type: cell-based, human
Method: as §1, §2, §5, §6, §7, §8, §9, §10

TXNRD1 = test: RT-qPCR PCR array mQPA-8-Nrf2, TXNRD1 expression in NHEK; assay type: cell-based, human
Method: as §1, §2, §5, §6, §7, §8, §9, §10

GCLC = test: RT-qPCR PCR array mQPA-8-Nrf2, GCLC expression in NHEK; assay type: cell-based, human
Method: as §1, §2, §5, §6, §7, §8, §9, §10

GCLM = test: RT-qPCR PCR array mQPA-8-Nrf2, GCLM expression in NHEK; assay type: cell-based, human
Method: as §1, §2, §5, §6, §7, §8, §9, §10

Nrf2 pathway = test: Gene expression profile of keratinocytes (mQPA-8-Nrf2 array as a whole); assay type: cell-based, human
Method: as §1, §2, §5, §6, §7

total GSH = test: Example 3: oral L-ergothioneine 5, 15, 30 mg/day on plasma glutathione in healthy humans; assay type: in vivo, human; settings: Example 3, 1400 mg orally once weekly for 4 weeks, single subject, baseline 653 μM
Text: A Baseline will be established looking at Total and Percent Reduced Glutathione. These same values will be measured at the end of the four weeks. Subjects will be contacted once a week while in the study for an assessment of compliance with intervention.
Study Population: Male and female subjects 25-75 years of age Number of Subjects: 5, assigned as follows: 1 subject will receive the GSH administered orally once weekly for 4 weeks; 1 subject will receive S-acetyl-glutathione supplemented orally once daily for 4 weeks; 3 subjects will receive 5, 15, 30 mg L-ergothioneine supplemented orally once daily for 4 weeks, respectively.
• 1. Individuals must be between 25-70 years of age with no known medical conditions that, in the investigator's opinion, may interfere with study participation. • 2. Subjects must present with mild to moderate signs oxidative stress or inflammation. • 3. Willingness to cooperate and participate by following Study requirements. • 4. Individuals must sign informed consent, photo release consent and confidentiality agreement.
• 1. […] Individuals currently taking certain medications or any dietary supplements, which in the opinion of the investigator might interfere with the study. This would include but not be limited to routine high dosage use of anti-inflammatory drugs (aspirin, ibuprofen, corticosteroids) immunosuppressive drugs or antihistamine medications), and insulin, anti-hypertensive drugs, and especially antioxidants. • 3. Individuals with uncontrolled metabolic diseases such as diabetes (Type I and II), hypertension, hyperthyroidism or hypothyroidism, severe chronic asthma, immunological disorders such as HIV positive, AIDS and systemic lupus erythematosus or mastectomy for cancer involving removal of lymph nodes. • 4. Women known to be pregnant, nursing or planning to become pregnant. • 5. Individuals participating in other clinical studies evaluating antioxidants or anti-inflammatory interventions.

[3] = system: body stores of glutathione; settings: oral 250 or 1000 mg/day, cited from earlier work
[4] = UV-irradiated (UVB-275 mJ/cm^2 +UVA-2 J/cm^2), 0.5 μM
[5] = UV-irradiated (UVB-275 mJ/cm^2 +UVA-2 J/cm^2), 3 μM
[6] = UV-irradiated (UVB-275 mJ/cm^2 +UVA-2 J/cm^2), 30 μM

C[N+](C)(C)[C@@H](Cc1c[nH]c(=S)[nH]1)C(=O)[O-] [L-Ergothioneine, (2S)-3-(2-thioxo-2,3-dihydro-1H-imidazol-4-yl)-2-(trimethylammonio)-propanoate]
viability at 24 h, 2.2 µM ([1]; Viability (%)): 97%
viability at 24 h, 6.7 µM ([1]; Viability (%)): 98%
viability at 24 h, 20 µM ([1]; Viability (%)): 99%
viability at 24 h, 60 µM ([1]; Viability (%)): 100%
viability at 24 h, 180 µM ([1]; Viability (%)): 99%
viability at 24 h, 540 µM ([1]; Viability (%)): 100%
viability at 24 h, 1620 µM ([1]; Viability (%)): 89%
viability at 24 h, 4860 µM ([1]; Viability (%)): 82%
viability at 24 h, 2.2 µM ([1]; Viability Mean (%)): 100%
viability at 24 h, 6.7 µM ([1]; Viability Mean (%)): 99%
viability at 24 h, 20 µM ([1]; Viability Mean (%)): 99%
viability at 24 h, 60 µM ([1]; Viability Mean (%)): 99%
viability at 24 h, 180 µM ([1]; Viability Mean (%)): 97%
viability at 24 h, 540 µM ([1]; Viability Mean (%)): 66%
viability at 24 h, 1620 µM ([1]; Viability Mean (%)): 92%
viability at 24 h, 4860 µM ([1]; Viability Mean (%)): 83%
Viability (%) ([2]; 2.2 µM): 105%
Viability (%) ([2]; 6.7 µM): 101%
Viability (%) ([2]; 20 µM): 102%
Viability (%) ([2]; 180 µM): 95%
Viability (%) ([2]; 4860 µM): 79%
RPS28 % Control RPS28 (RPS28; [4]): 100 % Control
RPS28 % Control RPS28 (RPS28; [5]): 100 % Control
RPS28 % Control RPS28 (RPS28; [6]): 100 % Control
RPS28 % Control RPS28 (RPS28; basal conditions, 0.5 μM): 100 % Control
RPS28 % Control RPS28 (RPS28; basal conditions, 3 μM): 100 % Control
RPS28 % Control RPS28 (RPS28; basal conditions, 30 μM): 100 % Control
NQO1 % Control RPS28 (NQO1; [4]): 118 % Control
NQO1 % Control RPS28 (NQO1; [5]): 136 % Control
NQO1 % Control RPS28 (NQO1; [6]): 207 % Control
NQO1 % Control RPS28 (NQO1; basal conditions, 0.5 μM): 127 % Control
NQO1 % Control RPS28 (NQO1; basal conditions, 3 μM): 131 % Control
NQO1 % Control RPS28 (NQO1; basal conditions, 30 μM): 155 % Control
HMOX1 % Control RPS28 (HMOX1; [4]): 104 % Control
HMOX1 % Control RPS28 (HMOX1; [5]): 109 % Control
HMOX1 % Control RPS28 (HMOX1; [6]): 141 % Control
HMOX1 % Control RPS28 (HMOX1; basal conditions, 0.5 μM): 86 % Control
HMOX1 % Control RPS28 (HMOX1; basal conditions, 3 μM): 91 % Control
HMOX1 % Control RPS28 (HMOX1; basal conditions, 30 μM): 98 % Control
MT1G % Control RPS28 (MT1G; [4]): 81 % Control
MT1G % Control RPS28 (MT1G; [5]): 94 % Control
MT1G % Control RPS28 (MT1G; [6]): 102 % Control
MT1G % Control RPS28 (MT1G; basal conditions, 0.5 μM): 113 % Control
MT1G % Control RPS28 (MT1G; basal conditions, 3 μM): 99 % Control
MT1G % Control RPS28 (MT1G; basal conditions, 30 μM): 115 % Control
TXN % Control RPS28 (TXN; [4]): 89 % Control
TXN % Control RPS28 (TXN; [5]): 99 % Control
TXN % Control RPS28 (TXN; [6]): 101 % Control
TXN % Control RPS28 (TXN; basal conditions, 0.5 μM): 87 % Control
TXN % Control RPS28 (TXN; basal conditions, 3 μM): 83 % Control
TXN % Control RPS28 (TXN; basal conditions, 30 μM): 98 % Control
TXNRD1 % Control RPS28 (TXNRD1; [4]): 99 % Control
TXNRD1 % Control RPS28 (TXNRD1; [5]): 97 % Control
TXNRD1 % Control RPS28 (TXNRD1; [6]): 120 % Control
TXNRD1 % Control RPS28 (TXNRD1; basal conditions, 0.5 μM): 75 % Control
TXNRD1 % Control RPS28 (TXNRD1; basal conditions, 3 μM): 72 % Control
TXNRD1 % Control RPS28 (TXNRD1; basal conditions, 30 μM): 82 % Control
GCLC % Control RPS28 (GCLC; [4]): 106 % Control
GCLC % Control RPS28 (GCLC; [5]): 126 % Control
GCLC % Control RPS28 (GCLC; [6]): 181 % Control
GCLC % Control RPS28 (GCLC; basal conditions, 0.5 μM): 111 % Control
GCLC % Control RPS28 (GCLC; basal conditions, 3 μM): 118 % Control
GCLC % Control RPS28 (GCLC; basal conditions, 30 μM): 140 % Control
GCLM % Control RPS28 (GCLM; [4]): 76 % Control
GCLM % Control RPS28 (GCLM; [5]): 86 % Control
GCLM % Control RPS28 (GCLM; [6]): 86 % Control
GCLM % Control RPS28 (GCLM; basal conditions, 0.5 μM): 95 % Control
GCLM % Control RPS28 (GCLM; basal conditions, 3 μM): 97 % Control
GCLM % Control RPS28 (GCLM; basal conditions, 30 μM): 98 % Control
Modulation of the gene expression profile of irradiated keratinocytes (Nrf2 pathway; UVB (+UVA) irradiated, tested at 0.5, 3 and 30 μM): did not induce major modulations
Effect on gene expression, basal keratinocytes (Nrf2 pathway; basal, lowest tested concentrations): no effect was observed
Modulation of the gene expression profile of basal keratinocytes (Nrf2 pathway; basal, tested at 0.5, 3 and 30 μM): did not induce major modulations
Effect on gene expression, irradiated keratinocytes (Nrf2 pathway; irradiated, lowest tested concentrations): no effect was observed

N[C@@H](CCC(=O)N[C@@H](CS)C(=O)NCC(=O)O)C(=O)O [glutathione]
% change from baseline in total GSH (total GSH): −23%
Natural killer cell cytotoxicity ([3]; at six months): favorable increases
Oxidized (GSSG) to reduced (GSH) glutathione ratio in whole blood ([3]; at six months): improvement
Body stores of glutathione ([3]; six months, 54 non-smoking adults): significant increases
